Measurements as given in the NIST ThermoML archive (doi:10.1021/je500455u).
Numbers after ± are expanded uncertainties.

Conditions: 101.33 kPa, Liquid, Vibrating tube method

mass density (278.15 K) | mass density (283.15 K) | mass density (288.15 K) | mass density (293.15 K) | mass density (298.15 K) | mass density (303.15 K) | mass density (308.15 K) | mass density (313.15 K) | mass density (318.15 K) | mass density (323.15 K) | mass density (328.15 K) | mass density (333.15 K) | mass density (338.15 K) | mass density (343.15 K) | Structure (SMILES)
1841 ± 1 kg/m3 | 1827.6 ± 1 kg/m3 | 1814 ± 1 kg/m3 | 1800.4 ± 1 kg/m3 | 1786.6 ± 1 kg/m3 | 1772.7 ± 1 kg/m3 | 1758.7 ± 0.9 kg/m3 | 1744.5 ± 0.9 kg/m3 | 1730.3 ± 0.9 kg/m3 | 1715.8 ± 0.9 kg/m3 | 1701.2 ± 0.9 kg/m3 | 1686.4 ± 0.9 kg/m3 | 1671.5 ± 0.9 kg/m3 | 1656.3 ± 0.8 kg/m3 | FC(F)(F)C1(F)C(F)(F)C(F)(F)C(F)(F)C(F)(F)C1(F)F [perfluoro(methylcyclohexane)]
– | – | – | – | 786.58 ± 0.23 kg/m3 | – | – | – | – | – | – | – | – | – | CO [methanol]
1742.5 ± 0.9 kg/m3 | 1728.3 ± 0.9 kg/m3 | 1713.8 ± 0.9 kg/m3 | 1699.2 ± 0.9 kg/m3 | 1684.4 ± 0.9 kg/m3 | 1669.4 ± 0.9 kg/m3 | 1654.1 ± 0.8 kg/m3 | 1638.6 ± 0.8 kg/m3 | 1622.9 ± 0.8 kg/m3 | 1606.4 ± 0.8 kg/m3 | 1590.5 ± 0.8 kg/m3 | – | – | – | FC(F)(F)C(F)(F)C(F)(F)C(F)(F)C(F)(F)C(F)(F)F [perfluorohexane]
– | – | – | – | 1604.84 ± 0.78 kg/m3 | – | – | – | – | – | – | – | – | – | OC(C(F)(F)F)C(F)(F)F [1,1,1,3,3,3-hexafluoro-2-propanol]
